The structures appear in SMILES notation.

A short description of the first data set: The drug is tested on Bifidobacterium breve strain: DSM20213 for biotransformation. The drug concentrations were measured before and after a 12-h incubation by liquid-chromatography-coupled mass spectrometry (LC–MS). The conditions noted are these: 2 µM.
Regarding `CC[C@H](C)C(=O)O[C@H]1CCC=C2C=C[C@H](C)[C@H](CC[C@@H]3C[C@@H](O)CC(=O)O3)[C@H]21` [MEVASTATIN], the “Bacterial Biotransformation” value was “Compound metabolized”.

The next data set is described as follows: The drug is tested on Collinsella intestinalis strain: DSM13280 for biotransformation. The drug concentrations were measured before and after a 12-h incubation by liquid-chromatography-coupled mass spectrometry (LC–MS). To be noted: 2 µM.
Consider `CC[C@H](C)C(=O)O[C@H]1CCC=C2C=C[C@H](C)[C@H](CC[C@@H]3C[C@@H](O)CC(=O)O3)[C@H]21` [MEVASTATIN], for which the “Bacterial Biotransformation” value was “Compound metabolized”.

The next data set is described as follows: The drug is tested on Bacteroides cellulosilyticus strain: DSM14838 for biotransformation. The drug concentrations were measured before and after a 12-h incubation by liquid-chromatography-coupled mass spectrometry (LC–MS). The conditions noted are these: 2 µM.
With `CC[C@H](C)C(=O)O[C@H]1CCC=C2C=C[C@H](C)[C@H](CC[C@@H]3C[C@@H](O)CC(=O)O3)[C@H]21` [MEVASTATIN], the “Bacterial Biotransformation” value was “Compound metabolized”.

A short description of a further data set: The drug is tested on Bacteroides fragilis strain: HMW610 for biotransformation. The drug concentrations were measured before and after a 12-h incubation by liquid-chromatography-coupled mass spectrometry (LC–MS). To be noted: 2 µM.
Turning to `CC[C@H](C)C(=O)O[C@H]1CCC=C2C=C[C@H](C)[C@H](CC[C@@H]3C[C@@H](O)CC(=O)O3)[C@H]21` [MEVASTATIN], the “Bacterial Biotransformation” value was “Compound NOT metabolized”.

The next data set in a line: The drug is tested on Bacteroides vulgatus strain: ATCC8482 for biotransformation. The drug concentrations were measured before and after a 12-h incubation by liquid-chromatography-coupled mass spectrometry (LC–MS). The conditions noted are these: phocaeicola vulgatus, 2 µM.
Consider `CC[C@H](C)C(=O)O[C@H]1CCC=C2C=C[C@H](C)[C@H](CC[C@@H]3C[C@@H](O)CC(=O)O3)[C@H]21` [MEVASTATIN], for which the “Bacterial Biotransformation” value is recorded as “Compound metabolized”.

Another data set is described as follows: The drug is tested on Bacteroides sp. WH2 strain: WH2 for biotransformation. The drug concentrations were measured before and after a 12-h incubation by liquid-chromatography-coupled mass spectrometry (LC–MS). To be noted: bacteroides sp. wh2, 12 h, 2 µM.
As for `CC[C@H](C)C(=O)O[C@H]1CCC=C2C=C[C@H](C)[C@H](CC[C@@H]3C[C@@H](O)CC(=O)O3)[C@H]21` [MEVASTATIN], the “Bacterial Biotransformation” value is reported as “Compound metabolized”.

Another data set in a line: The drug is tested on Blautia hansenii strain: DSM20583 for biotransformation. The drug concentrations were measured before and after a 12-h incubation by liquid-chromatography-coupled mass spectrometry (LC–MS). The conditions noted are these: 2 µM.
As to `CC[C@H](C)C(=O)O[C@H]1CCC=C2C=C[C@H](C)[C@H](CC[C@@H]3C[C@@H](O)CC(=O)O3)[C@H]21` [MEVASTATIN], the “Bacterial Biotransformation” value is “Compound metabolized”.

A short description of another data set: The drug is tested on Blautia luti strain: DSM14534 for biotransformation. The drug concentrations were measured before and after a 12-h incubation by liquid-chromatography-coupled mass spectrometry (LC–MS). The data set is classed as ADME. More on the design: dose 2 uM, timepoint 0 vs 12 hours. The conditions noted are these: 2 µM.
For the molecule `CC[C@H](C)C(=O)O[C@H]1CCC=C2C=C[C@H](C)[C@H](CC[C@@H]3C[C@@H](O)CC(=O)O3)[C@H]21` [MEVASTATIN], the “Bacterial Biotransformation” value is given as “Compound metabolized”.

A further data set can be described thus: The drug is tested on Clostridium asparagiforme strain: DSM15981 for biotransformation. The drug concentrations were measured before and after a 12-h incubation by liquid-chromatography-coupled mass spectrometry (LC–MS). More on the design: dose 2 uM, timepoint 0 vs 12 hours. The data set is classed as ADME. To be noted: enterocloster asparagiformis, 2 µM.
For the molecule `CC[C@H](C)C(=O)O[C@H]1CCC=C2C=C[C@H](C)[C@H](CC[C@@H]3C[C@@H](O)CC(=O)O3)[C@H]21` [MEVASTATIN], the “Bacterial Biotransformation” value is reported as “Compound metabolized”.

The next data set in a line: The drug is tested on Dorea formicigenerans strain: ATCC27755 for biotransformation. The drug concentrations were measured before and after a 12-h incubation by liquid-chromatography-coupled mass spectrometry (LC–MS). To be noted: 2 µM.
In the case of `CC[C@H](C)C(=O)O[C@H]1CCC=C2C=C[C@H](C)[C@H](CC[C@@H]3C[C@@H](O)CC(=O)O3)[C@H]21` [MEVASTATIN], the “Bacterial Biotransformation” value was “Compound metabolized”.

The next data set can be described thus: The drug is tested on Eubacterium ventriosum strain: ATCC27560 for biotransformation. The drug concentrations were measured before and after a 12-h incubation by liquid-chromatography-coupled mass spectrometry (LC–MS). It counts as ADME. More on the design: dose 2 uM, timepoint 0 vs 12 hours. To be noted: 2 µM.
`CC[C@H](C)C(=O)O[C@H]1CCC=C2C=C[C@H](C)[C@H](CC[C@@H]3C[C@@H](O)CC(=O)O3)[C@H]21` [MEVASTATIN]: the “Bacterial Biotransformation” value is recorded as “Compound metabolized”.

A further data set is described as follows: The drug is tested on Subdoligranulum variabile strain: DSM15176 for biotransformation. The drug concentrations were measured before and after a 12-h incubation by liquid-chromatography-coupled mass spectrometry (LC–MS). To be noted: 2 µM.
`CC[C@H](C)C(=O)O[C@H]1CCC=C2C=C[C@H](C)[C@H](CC[C@@H]3C[C@@H](O)CC(=O)O3)[C@H]21` [MEVASTATIN]: the “Bacterial Biotransformation” value is on record as “Compound metabolized”.

A further data set can be described thus: The drug is tested on Escherichia coli strain: BW25113 for biotransformation. The drug concentrations were measured before and after a 12-h incubation by liquid-chromatography-coupled mass spectrometry (LC–MS). To be noted: 2 µM.
Turning to `CC[C@H](C)C(=O)O[C@H]1CCC=C2C=C[C@H](C)[C@H](CC[C@@H]3C[C@@H](O)CC(=O)O3)[C@H]21` [MEVASTATIN], the “Bacterial Biotransformation” value is reported as “Compound metabolized”.

For another data set the following is noted: bacteroides eggerthii, 12 h, 2 µM.
Description: The drug is tested on Bacteroides eggerthii strain: DSM20697 for biotransformation. The drug concentrations were measured before and after a 12-h incubation by liquid-chromatography-coupled mass spectrometry (LC–MS)
For `CC[C@H](C)C(=O)O[C@H]1CCC=C2C=C[C@H](C)[C@H](CC[C@@H]3C[C@@H](O)CC(=O)O3)[C@H]21` [MEVASTATIN], the “Bacterial Biotransformation” value is on record as “Compound metabolized”.

For a further data set the following is noted: bacteroides thetaiotaomicron, 12 h, 2 µM.
Description: The drug is tested on Bacteroides thetaiotaomicron strain: VPI-5482 for biotransformation. The drug concentrations were measured before and after a 12-h incubation by liquid-chromatography-coupled mass spectrometry (LC–MS)
With `CC[C@H](C)C(=O)O[C@H]1CCC=C2C=C[C@H](C)[C@H](CC[C@@H]3C[C@@H](O)CC(=O)O3)[C@H]21` [MEVASTATIN], the “Bacterial Biotransformation” value is “Compound metabolized”.

The conditions of the next data set: bacteroides thetaiotaomicron, 12 h, 2 µM. This is another data set of the same source.
Description: The drug is tested on Bacteroides thetaiotaomicron strain: 7330 for biotransformation. The drug concentrations were measured before and after a 12-h incubation by liquid-chromatography-coupled mass spectrometry (LC–MS)
On to `CC[C@H](C)C(=O)O[C@H]1CCC=C2C=C[C@H](C)[C@H](CC[C@@H]3C[C@@H](O)CC(=O)O3)[C@H]21` [MEVASTATIN], for which the “Bacterial Biotransformation” value is listed as “Compound metabolized”.

For another data set the following is noted: segatella copri, 12 h, 2 µM.
Description: The drug is tested on Prevotella copri strain: DSM18205 for biotransformation. The drug concentrations were measured before and after a 12-h incubation by liquid-chromatography-coupled mass spectrometry (LC–MS)
Take `CC[C@H](C)C(=O)O[C@H]1CCC=C2C=C[C@H](C)[C@H](CC[C@@H]3C[C@@H](O)CC(=O)O3)[C@H]21` [MEVASTATIN]: the “Bacterial Biotransformation” value was “Compound metabolized”.

For another data set the following is noted: roseburia intestinalis, 12 h, 2 µM.
Description: The drug is tested on Roseburia intestinalis strain: L1-82 for biotransformation. The drug concentrations were measured before and after a 12-h incubation by liquid-chromatography-coupled mass spectrometry (LC–MS)
`CC[C@H](C)C(=O)O[C@H]1CCC=C2C=C[C@H](C)[C@H](CC[C@@H]3C[C@@H](O)CC(=O)O3)[C@H]21` [MEVASTATIN]: the “Bacterial Biotransformation” value was “Compound metabolized”.

For another data set the following is noted: victivallis vadensis, 12 h, 2 µM.
Description: The drug is tested on Victivallis vadensis strain: ATCC BAA-548 for biotransformation. The drug concentrations were measured before and after a 12-h incubation by liquid-chromatography-coupled mass spectrometry (LC–MS)
`CC[C@H](C)C(=O)O[C@H]1CCC=C2C=C[C@H](C)[C@H](CC[C@@H]3C[C@@H](O)CC(=O)O3)[C@H]21` [MEVASTATIN]: the “Bacterial Biotransformation” value was “Compound metabolized”.

The conditions of the next data set: akkermansia muciniphila, 12 h, 2 µM.
Description: The drug is tested on Akkermansia muciniphila strain: ATCC BAA-835 for biotransformation. The drug concentrations were measured before and after a 12-h incubation by liquid-chromatography-coupled mass spectrometry (LC–MS)
Turning to `CC[C@H](C)C(=O)O[C@H]1CCC=C2C=C[C@H](C)[C@H](CC[C@@H]3C[C@@H](O)CC(=O)O3)[C@H]21` [MEVASTATIN], the “Bacterial Biotransformation” value is “Compound metabolized”.

The values are drawn from ChEMBL document CHEMBL5303573, “Mapping human microbiome drug metabolism by gut bacteria and their genes” (Nature, 2019).
